The source made the active and inactive calls. The calls are words filed in the database; no cut-off is given here.
Assays:
SH-SY5Y = test: Neuroprotective activity against amyloid beta (25 to 35)-induced cytotoxicity in human SH-SY5Y cells at 10 uM preincubated for 2 hrs followed by amyloid beta (25 to 35)-stimulation and measured after 24 hrs by MTT assay (reference value: 71.18 +/- 1.34); format: functional
Danio rerio = organism: Danio rerio; test: Neuroprotective activity against PTZ-induced seizure in zebra fish AB at 10 uM pretreated for 24 hrs followed by PTZ-stimulation and measured after 15 mins; format: functional, organism-based

Compound: CCC(C)C(=O)O[C@H]1[C@@H](OC(C)=O)C[C@@H](C)[C@]23OC(C)(C)[C@H](C[C@@H](OC(=O)c4ccccc4)[C@]12COC(C)=O)[C@H]3OC(C)=O (some centres not stated)
- Activity (SH-SY5Y): 88.34%

Compound: CC(=O)OC[C@]12C(=O)[C@@H](OC(=O)c3ccccc3)[C@@H]3[C@@H](OC(C)=O)[C@]1(OC3(C)C)[C@H](C)C[C@H](OC(=O)c1cccnc1)[C@@H]2O
- Activity (SH-SY5Y): 74.16%

Compound: CCCCCC(=O)O[C@H]1C[C@@H](C)[C@]23OC(C)(C)[C@H]([C@@H](OC(=O)c4ccccc4)[C@@H](OC(C)=O)[C@]2(COC(C)=O)[C@H]1OC(=O)c1ccccc1)[C@H]3OC(C)=O
- Activity (SH-SY5Y): 86.65%

Compound: CC[C@H](C)C(=O)O[C@@H]1[C@H]2[C@@H](OC(C)=O)[C@]3(OC2(C)C)[C@H](C)C[C@H](OC(=O)c2ccccc2)[C@H](OC(=O)c2ccccc2)[C@@]3(COC(C)=O)[C@@H]1OC(C)=O
- Activity (SH-SY5Y): 80.11%

Compound: CC(=O)OC[C@]12[C@@H](OC(=O)c3ccccc3)C[C@@H]3[C@@H](OC(C)=O)[C@]1(OC3(C)C)[C@H](C)C[C@H](OC(=O)c1ccccc1)[C@@H]2OC(C)=O
- Activity (Danio rerio): inactive
- Activity (SH-SY5Y): 83.04%

Compound: CC(=O)OC[C@]12[C@H](OC(C)=O)[C@H](OC(=O)c3ccccc3)[C@@H]3[C@@H](OC(C)=O)[C@]1(OC3(C)C)[C@H](C)C[C@H](O)[C@@H]2OC(=O)c1ccccc1
- Activity (SH-SY5Y): 85.91%

Compound: CC(=O)OC[C@]12[C@H](OC(=O)c3ccccc3)C[C@@H]3[C@@H](OC(C)=O)[C@]1(OC3(C)C)[C@H](C)C[C@H](OC(C)=O)[C@@H]2OC(C)=O
- Activity (SH-SY5Y): 79.62%

Compound: CC(=O)OC[C@]12[C@H](OC(=O)c3ccoc3)C[C@@H]3[C@@H](OC(C)=O)[C@]1(OC3(C)C)[C@@](C)(O)C[C@H](OC(=O)c1ccoc1)[C@@H]2OC(=O)c1ccoc1
- Activity (SH-SY5Y): 70.11%

Compound: CC(=O)OC[C@]12[C@H](OC(=O)c3ccoc3)C[C@@H]3[C@@H](OC(C)=O)[C@]1(OC3(C)C)[C@@](C)(O)C[C@H](OC(=O)c1ccccc1)[C@@H]2OC(=O)c1ccoc1
- Activity (SH-SY5Y): 80.8%

Compound: CCC(C)C(=O)O[C@H]1C[C@](C)(O)[C@]23OC(C)(C)[C@H](C[C@@H](OC(=O)c4ccoc4)[C@]2(COC(C)=O)[C@H]1OC(=O)c1ccoc1)[C@H]3OC(C)=O (some centres not stated)
- Activity (SH-SY5Y): 71%

Compound: CCC(C)C(=O)O[C@H]1[C@@H](OC(=O)c2ccoc2)C[C@](C)(O)[C@]23OC(C)(C)[C@H](C[C@H](OC(=O)c4ccoc4)[C@]12COC(C)=O)[C@H]3OC(C)=O (some centres not stated)
- Activity (SH-SY5Y): 82.96%

Compound: CC(=O)OC[C@]12[C@H](OC(C)=O)[C@H](OC(=O)c3ccccc3)[C@@H]3[C@@H](OC(C)=O)[C@]1(OC3(C)C)[C@H](C)C[C@H](OC(C)=O)[C@@H]2OC(=O)c1ccccc1
- Activity (Danio rerio): Active
- Activity (SH-SY5Y): 80.75%

Compound: CC(=O)OC[C@]12[C@H](OC(C)=O)[C@H](OC(=O)c3ccccc3)[C@@H]3[C@@H](OC(C)=O)[C@]1(OC3(C)C)[C@H](C)C[C@H](OC(=O)c1ccccc1)[C@@H]2OC(=O)c1ccccc1
- Activity (SH-SY5Y): 80.92%

Compound: CCC(C)C(=O)O[C@H]1C[C@](C)(O)[C@]23OC(C)(C)[C@H](C[C@H](OC(=O)c4ccccc4)[C@]2(COC(C)=O)[C@H]1OC(=O)C(C)CC)[C@H]3OC(C)=O (some centres not stated)
- Activity (SH-SY5Y): 92.86%

Compound: O=C(O[C@@H]1Cc2c(O)cc(O)cc2O[C@@H]1c1cc(O)c(O)c(O)c1)c1cc(O)c(O)c(O)c1 [EPIGALOCATECHIN GALLATE]
- Activity (SH-SY5Y): 87.2%
